{
  "source": "ChEMBL document CHEMBL1201862",
  "about": "“PubChem BioAssay data set” (2004)",
  "experiment_in_all_cases": "growth of human tumour cells (NCI), 48 h",
  "key": {"786-0": {"tested_on": "786-0"}, "A498": {"tested_on": "A498"}, "ACHN": {"tested_on": "ACHN"}, "CAKI-1": {"tested_on": "CAKI-1"}, "COLO 205": {"tested_on": "COLO 205"}, "DMS-114": {"tested_on": "DMS-114"}, "DMS-273": {"tested_on": "DMS-273"}, "EKVX": {"tested_on": "EKVX"}, "HCT-116": {"tested_on": "HCT-116"}, "HCT-15": {"tested_on": "HCT-15"}, "HOP-62": {"tested_on": "HOP-62"}, "HT-29": {"tested_on": "HT-29"}, "KM-20L2": {"tested_on": "KM-20L2"}, "KM12": {"tested_on": "KM12"}, "LOX IMVI": {"tested_on": "LOX IMVI"}, "M14": {"tested_on": "M14"}, "Malme-3M": {"tested_on": "Malme-3M"}, "NCI-H226": {"tested_on": "NCI-H226"}, "NCI-H23": {"tested_on": "NCI-H23"}, "NCI-H460": {"tested_on": "NCI-H460"}, "NCI-H522": {"tested_on": "NCI-H522"}, "OVCAR-3": {"tested_on": "OVCAR-3"}, "OVCAR-5": {"tested_on": "OVCAR-5"}, "OVCAR-8": {"tested_on": "OVCAR-8"}, "RPMI-8226": {"tested_on": "RPMI-8226"}, "RXF 393": {"tested_on": "RXF 393"}, "SF-268": {"tested_on": "SF-268"}, "SF-295": {"tested_on": "SF-295"}, "SF-539": {"tested_on": "SF-539"}, "SK-MEL-28": {"tested_on": "SK-MEL-28"}, "SK-MEL-2": {"tested_on": "SK-MEL-2"}, "SK-MEL-5": {"tested_on": "SK-MEL-5"}, "SN12C": {"tested_on": "SN12C"}, "SW-620": {"tested_on": "SW-620"}, "U-251": {"tested_on": "U-251"}, "UACC-62": {"tested_on": "UACC-62"}, "XF498": {"tested_on": "XF498"}},
  "note": "“And” between values parts separate entries of the source, which are not always exact repeats. Equal entries are not always repeated.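 Values below derive from 48-hour exposures of cells grown in 96-well plates, with endpoints linearly interpolated between the two concentrations bracketing the appropriate inhibition level. GI50 marks 50% less growth.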 The source made the active and inactive calls. Rule as the data show it: active = GI50 up to about 1.1 µM and inactive = higher.",
  "data": [
    {"smiles": "CC1(O)CC2C(CC1SCc1ccccc1)C2(C)C", "note": "(configuration not stated)", "values": [
      {"measurement": "GI50", "setting": "786-0", "value": "15.8 µM (inactive) and 21.7 µM (inactive)"},
      {"measurement": "GI50", "setting": "A498", "value": "18.3 µM (inactive) and 28.1 µM (inactive)"},
      {"measurement": "GI50", "setting": "ACHN", "value": "16.8 µM (inactive) and 18.2 µM (inactive)"},
      {"measurement": "GI50", "setting": "CAKI-1", "value": "15.8 µM (inactive) and 12.5 µM (inactive)"},
      {"measurement": "GI50", "setting": "COLO 205", "value": "20 µM (inactive) and 16.9 µM (inactive)"},
      {"measurement": "GI50", "setting": "DMS-114", "value": "14.5 µM (inactive)"},
      {"measurement": "GI50", "setting": "DMS-273", "value": "14.2 µM (inactive) and 17.9 µM (inactive)"},
      {"measurement": "GI50", "setting": "EKVX", "value": "16.7 µM (inactive) and 29.7 µM (inactive)"},
      {"measurement": "GI50", "setting": "HCT-116", "value": "16.6 µM (inactive) and 21.2 µM (inactive)"},
      {"measurement": "GI50", "setting": "HCT-15", "value": "16.9 µM and 22.3 µM"},
      {"measurement": "GI50", "setting": "HOP-62", "value": "24.9 µM (inactive) and 16.6 µM (inactive)"},
      {"measurement": "GI50", "setting": "HT-29", "value": "16.4 µM (inactive) and 23.1 µM (inactive)"},
      {"measurement": "GI50", "setting": "KM-20L2", "value": "20.6 µM (inactive) and 26.6 µM (inactive)"},
      {"measurement": "GI50", "setting": "KM12", "value": "19.3 µM (inactive) and 25.3 µM (inactive)"},
      {"measurement": "GI50", "setting": "LOX IMVI", "value": "17.1 µM (inactive) and 15.5 µM (inactive)"},
      {"measurement": "GI50", "setting": "M14", "value": "30.1 µM (inactive) and 15.5 µM (inactive)"},
      {"measurement": "GI50", "setting": "Malme-3M", "value": "22 µM (inactive) and 16.3 µM (inactive)"},
      {"measurement": "GI50", "setting": "NCI-H226", "value": "21.5 µM (inactive) and 16 µM (inactive)"},
      {"measurement": "GI50", "setting": "NCI-H23", "value": "23.3 µM (inactive) and 14.2 µM (inactive)"},
      {"measurement": "GI50", "setting": "NCI-H460", "value": "14.6 µM (inactive) and 22.9 µM (inactive)"},
      {"measurement": "GI50", "setting": "NCI-H522", "value": "13.7 µM (inactive) and 11.9 µM (inactive)"},
      {"measurement": "GI50", "setting": "OVCAR-3", "value": "12.3 µM (inactive) and 16.9 µM (inactive)"},
      {"measurement": "GI50", "setting": "OVCAR-5", "value": "17.9 µM (inactive) and 17.1 µM (inactive)"},
      {"measurement": "GI50", "setting": "OVCAR-8", "value": "16.5 µM (inactive) and 29.4 µM (inactive)"},
      {"measurement": "GI50", "setting": "RPMI-8226", "value": "11.9 µM (inactive) and 19.8 µM (inactive)"},
      {"measurement": "GI50", "setting": "RXF 393", "value": "15.3 µM (inactive) and 18.5 µM (inactive)"},
      {"measurement": "GI50", "setting": "SF-268", "value": "25.9 µM (inactive) and 18.7 µM (inactive)"},
      {"measurement": "GI50", "setting": "SF-295", "value": "28.2 µM (inactive)"},
      {"measurement": "GI50", "setting": "SF-539", "value": "28.8 µM (inactive) and 19.3 µM (inactive)"},
      {"measurement": "GI50", "setting": "SK-MEL-28", "value": "21 µM (inactive) and 29.3 µM (inactive)"},
      {"measurement": "GI50", "setting": "SK-MEL-2", "value": "17.3 µM (inactive) and 11.4 µM (inactive)"},
      {"measurement": "GI50", "setting": "SK-MEL-5", "value": "23.6 µM (inactive) and 13.1 µM (inactive)"},
      {"measurement": "GI50", "setting": "SN12C", "value": "16.1 µM (inactive) and 23.2 µM (inactive)"},
      {"measurement": "GI50", "setting": "SW-620", "value": "17.5 µM (inactive) and 21.7 µM (inactive)"},
      {"measurement": "GI50", "setting": "U-251", "value": "16 µM (inactive) and 21.2 µM (inactive)"},
      {"measurement": "GI50", "setting": "UACC-62", "value": "32.4 µM (inactive) and 19.3 µM (inactive)"},
      {"measurement": "GI50", "setting": "XF498", "value": "20.5 µM (inactive) and 15.2 µM (inactive)"}
    ]}
  ]
}
